The values that follow come from patent US9521847B2, “Synergistic weed control from applications of pyridine carboxylic acid herbicides and synthetic auxin herbicides and/or auxin transport inhibitors” (Dow AgroSciences LLC, priority 2014, dated 2016).

Read-outs that look alike come from different tables or passages of the source.

In data set [1] the test system is kochia (KCHSC, Kochia scoparia). Description: Greenhouse postemergence trial, % visual injury. Format: in vivo. The protocol: Following the protocol in Example 1, compound 1 and compound 2 were combined with 2,4 D EHE (EC) and applied to kochia (KCHSC, Kochia scoparia) and the phytotoxicity of the herbicidal compositions was measured.
Following the protocol in Example 1, compound 1 (EC) and Compound 2 (SC) were combined with diflufenzopyr and applied to kochia (Kochia scoparia, KCHSC) and the phytotoxicity of the herbicidal composition was measured.

Data set [2] deals with spring barley (HORVS). In words: Greenhouse postemergence trial, crop phytotoxicity (% visual injury). To be noted: crop; 100 g ae/ha alone; 20-22 d.
The test system of data set [3] is pigweed (AMARE, Amaranthus retroflexus). In words: Greenhouse postemergence trial, % visual injury. Format: in vivo.
For data set [4], the system named is Canadian thistle (CIRAR, Cirsium arvense). In words: Greenhouse postemergence trial, % visual injury.
For data set [5], the system named is common chickweed (Stellaria media, STEME). Description: Greenhouse postemergence trial, % visual injury. The class given is in vivo.
In data set [6] the test system is spring rape (Brassica napus, BRSNN). Description: Greenhouse postemergence trial, % visual injury.
The test system of data set [7] is common lambsquarters (CHEAL, Chenopodium album L.). In words: Greenhouse postemergence trial, % visual injury. The class given is in vivo.
The subject of data set [8] is winter rape (BRSNW, Brassica napus). In words: Greenhouse postemergence trial, % visual injury. Format: in vivo. To be noted: 20-22 d.
The test system of data set [9] is winter wheat (TRZAW). In words: Greenhouse postemergence trial, crop phytotoxicity (% visual injury). To be noted: for % visual injury, Obs: TRZAW.
Data set [10] relates to maize (ZEAMX). The data set is described as above. The settings on record: for % visual injury, Obs: ZEAMX.
In data set [11] the test system is common rice (ORYSA). The data set is described as above. The settings on record: for % visual injury, Obs: ORYSA.
Data set [12] concerns large crabgrass (Digitaria sanguinalis, DIGSA). Description: Greenhouse postemergence trial, % visual injury. Format: in vivo. To be noted: Digitaria sanguinalis, post-emergence, DIGSA, read-out: % visual injury, Obs.
Data set [13] concerns ivyleaf morningglory (Ipomoea hederacea, IPOHE). Description: Greenhouse postemergence trial, % visual injury.
Data set [14] deals with poinsettia (Euphorbia heterophylla, EPHHL). In words: Greenhouse postemergence trial, % visual injury.
The subject of data set [15] is turnip (Brassica rapa, BRSRR). In words: Greenhouse postemergence trial, % visual injury. Format: in vivo.
Data set [16] concerns Indian hedge mustard (Sisymbrium orientale, SSYOR). In words: Greenhouse postemergence trial, % visual injury. The class given is in vivo.
The subject of data set [17] is wild mustard (Sinapis arvensis, SINAR). Description: Greenhouse postemergence trial, % visual injury. Format: in vivo.
In data set [18] the test system is wild pansy (Viola tricolor, VIOTR). In words: Greenhouse postemergence trial, % visual injury.
Data set [19] deals with black mustard (Brassica nigra, BRSNI). Description: Greenhouse postemergence trial, % visual injury. The class given is in vivo.
The subject of data set [20] is wild radish (Raphanus raphanistrum, RAPRA). In words: Greenhouse postemergence trial, % visual injury. Format: in vivo.
Data set [21] has as its system grain sorghum (Sorghum vulgare, SORVU). In words: Greenhouse postemergence trial, % visual injury. Format: in vivo. To be noted: Arylex 2.5 g ae/ha.
The test system of data set [22] is common rice (ORYSA). The settings on record: in vivo.
The subject of data set [23] is winter wheat (TRZAW). To be noted: in vivo; for % visual injury Obs: Triticum aestivum (winter wheat).
For data set [24], the system named is spring barley (HORVS). The settings on record: Hordeum vulgare (spring barley), in vivo.
Data set [25] concerns maize (ZEAMX). The settings on record: maize (Zea mays), in vivo.
Data set [26] has as its system Chinese kale (Brassica alboglabra, BRSAG). Description: Greenhouse postemergence trial, % visual injury. Format: in vivo. The settings on record: 400 g ae/ha alone; 20-22 d.
The test system of data set [27] is rutabaga (Brassica napus var. napobrassica, BRSNA). In words: Greenhouse postemergence trial, % visual injury. The class given is in vivo. To be noted: 400 g ae/ha alone; 20-22 d.
For data set [28], the system named is brown mustard (Brassica juncea, BRSJU). In words: Greenhouse postemergence trial, % visual injury. The class given is in vivo. To be noted: 400 g ae/ha alone; 20-22 d.
For data set [29], the system named is sunflower (Helianthus annus, HELAN). In words: Greenhouse postemergence trial, % visual injury. Format: in vivo. The settings on record: dichlorprop-P 400 g ae/ha.
The test system of data set [30] is nutsedge (Cyperus esculentus, CYPES). Description: Greenhouse postemergence trial, % visual injury. The class given is in vivo.
Data set [31] concerns velvetleaf (Abutilon theophrasti, ABUTH). In words: Greenhouse postemergence trial, % visual injury. The class given is in vivo.
The subject of data set [32] is barnyardgrass (Echinochloa crus-galli, ECHCG). In words: Greenhouse postemergence trial, % visual injury. The settings on record: ECHCG, 280 g ae/ha. The class given is in vivo.
[33] abbreviates: Cirsium arvense, post-emergence, read-out: % visual injury Obs.
[34] abbreviates: Brassica napus, post-emergence, read-out: % visual injury, Obs.
Setting [35] is: winter wheat (Triticum aestivum).
[36] abbreviates: Cirsium arvense, post-emergence, read-out: % visual injury (Obs).
Where [37] appears, read: Brassica napus, post-emergence, read-out: % visual injury (Obs).

With `O=C(O)c1nc(Cl)ccc1Cl` [clopyralid], the “% visual injury (Obs)” value in [1] (clopyralid 120 g ae/ha) came to 10%; in [5] (clopyralid 120 g ae/ha) it was 0%; in data set [7] (clopyralid 120 g ae/ha), 10%; in data set [9] (clopyralid 120 g ae/ha), 0%; in [10] (clopyralid 120 g ae/ha) it was 0%; in data set [11] (clopyralid 120 g ae/ha) it was 0%. Besides, the “% visual injury (Obs)” value in [13] (clopyralid 120 g ae/ha) was determined as 30%. In addition, the “% visual injury Obs” value amounted to 5% in [2]; 0% in data set [8] (100 g ae/ha alone); 3% in [9] (crop, 100 g ae/ha alone, 20-22 d). Moreover, the “% visual injury, Obs” value in data set [3] (AMARE, 100 g ae/ha) is recorded as 28%; in data set [9] (100 g ae/ha) it was 0%; in data set [10] (100 g ae/ha), 0%; in data set [11] (100 g ae/ha), 0%. Further, the pest or weed control at 100 g/ha in data set [3] (Amaranthus retroflexus, post-emergence, 100 g ae/ha alone, 20-22 d, read-out: % visual injury Obs) is 3%; in data set [4] (setting [33]) it was 85%; in data set [7] (Chenopodium album, post-emergence, 100 g ae/ha alone, 20-22 d, read-out: % visual injury Obs), 0%; in [12] (100 g ae/ha) it was 0%; in data set [13] (Ipomoea, post-emergence, read-out: % visual injury, Obs, IPOHE, 100 g ae/ha), 35%; in data set [14] (Euphorbia heterophylla, post-emergence, read-out: % visual injury, Obs, EPHHL, 100 g ae/ha), 5%. For the same compound, the plant injury at 100 g/ha in data set [6] (setting [34]) amounted to 43%.

With `COC(=O)c1nc(-c2ccc(Cl)c(OC)c2F)cc(N)c1Cl` [Arylex ™], the “% visual injury (Obs)” value in [15] (Arylex 2.5 g ae/ha) is on record as 10%; in data set [15] (Arylex 5 g ae/ha) it was 13%; in [16] (Arylex 2.5 g ae/ha) it was 57%; in [16] (Arylex 5 g ae/ha), 63%; in data set [4] (Arylex 2.5 g ae/ha), 50%; in data set [17] (Arylex 2.5 g ae/ha), 65%. For the same compound, the “% visual injury (Obs)” value in [17] (Arylex 5 g ae/ha) was 78%; in data set [6] (Arylex 2.5 g ae/ha), 20%; in [18] (Arylex 2.5 g ae/ha) it was 15%; in data set [18] (Arylex 5 g ae/ha) it was 20%; in [19] (Arylex 2.5 g ae/ha), 0%; in data set [19] (Arylex 5 g ae/ha), 0%. The “% visual injury (Obs)” value in data set [20] (Arylex 2.5 g ae/ha) is 10%; in data set [20] (Arylex 5 g ae/ha) it was 20%; in data set [9] (Arylex 2.5 g ae/ha) it was 0%; in [10] (Arylex 2.5 g ae/ha), 0%; in data set [11] (Arylex 2.5 g ae/ha), 0%; in data set [13] (Arylex 2.5 g ae/ha), 10%. Moreover, the “% visual injury (Obs)” value in data set [21] worked out at 0%.

As to `COc1c(Cl)ccc(Cl)c1C(=O)O` [Dicamba-DMA, dicamba-dimethylammonium, reference compound], the “% visual injury (Obs)” value in data set [22] worked out at 0%; in data set [23] (setting [35]), 0%; in data set [18] (dicamba-DMA 150 g ae/ha) it was 20%; in data set [25] it was 0%; in data set [13] (dicamba-DMA 150 g ae/ha) it was 70%; in [14] (dicamba-DMA 150 g ae/ha), 50%. For the same compound, the “% visual injury, Obs” value in data set [22] is reported as 5%; in data set [23] (setting [35]) it was 0%; in [7] (CHEAL, 140 g ae/ha) it was 85%; in data set [25] it was 0%. The “% visual injury Obs” value in [23] came out at 0%; in data set [24], 0%; in data set [8] (140 g ae/ha alone) it was 40%. Further, the pest or weed control at 140 g/ha in data set [3] (Amaranthus retroflexus, post-emergence, 140 g ae/ha alone, 20-22 d, read-out: % visual injury Obs) was 67%; in data set [12] (140 g ae/ha), 0%; in [14] (Euphorbia heterophylla, post-emergence, read-out: % visual injury, Obs, EPHHL, 140 g ae/ha), 20%. Moreover, in [4] (setting [36]), the pest or weed control at 150 g/ha is 70%. Besides, the plant injury at 150 g/ha in data set [6] (setting [37]) came to 40%. In data set [6] (setting [34]), the plant injury at 140 g/ha was found to be 50%.

For the compound `O=C(O)COc1ccc(Cl)cc1Cl` [2,4-D choline, reference compound], the “% visual injury Obs” value in [26] came out at 85%; in data set [27], 93%; in [28], 90%.

On to `CC(Oc1ccc(Cl)cc1Cl)C(=O)O` (stereo not shown) [Dichlorprop-P, dichlorprop-P, reference compound], for which the “% visual injury (Obs)” value is listed as 0% in data set [22]; 0% in data set [23] (setting [35]); 85% in [29]; 20% in [5] (dichlorprop-P 400 g ae/ha); 0% in data set [30] (dichlorprop-P 400 g ae/ha); 60% in data set [31] (dichlorprop-P 400 g ae/ha). In data set [14] (dichlorprop-P 400 g ae/ha), the “% visual injury (Obs)” value is given as 60%. The “% visual injury Obs” value in data set [23] is 0%; in data set [24] it was 0%; in data set [8] (280 g ae/ha alone), 83%. Besides, the pest or weed control at 280 g/ha turned out to be 40% in [3] (Amaranthus retroflexus, post-emergence, 280 g ae/ha alone, 20-22 d, read-out: % visual injury Obs) and 75% in data set [4] (setting [33]). Further, in data set [4] (setting [36]), the pest or weed control at 400 g/ha was 70%. Moreover, the plant injury at 400 g/ha in [6] (setting [37]) worked out at 80%.

For `CCCCOCCOC(=O)COc1nc(Cl)c(Cl)cc1Cl` [triclopyr-butotyl, reference compound], the pest or weed control at 280 g/ha was 50% in [1] (Bassia scoparia, post-emergence, KCHSC, 280 g ae/ha, read-out: % visual injury, Obs); 0% in data set [12] (280 g ae/ha); 20% in data set [31] (Abutilon theophrasti, post-emergence, ABUTH, 280 g ae/ha, read-out: % visual injury, Obs). Moreover, the “% visual injury, Obs” value is recorded as 85% in [4] (CIRAR, 280 g ae/ha); 20% in data set [5] (STEME, 280 g ae/ha); 65% in data set [18] (VIOTR, 280 g ae/ha); 15% in data set [9] (280 g ae/ha); 10% in [10] (280 g ae/ha); 0% in data set [11] (280 g ae/ha). The “% visual injury, Obs” value in data set [32] was 0%; in [30] (CYPES, 280 g ae/ha), 10%. In [6] (setting [34]), the plant injury at 280 g/ha was determined as 80%.
